Patent US11053204B2, “Pyrimidinyloxy benzene derivatives as herbicides” (FMC Corporation, priority 2015, dated 2021)

What was measured:
Type in all cases: in vivo
[1] = test system: large (Lg) crabgrass (Digitaria sanguinalis); assay: Test A preemergence, visual injury rating; conditions: 1000 g ai/ha, 0 to 100 scale (0 no effect, 100 complete control)
How it was run: (§1)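 Compounds in non-phytotoxic solvent with surfactant applied as soil spray preemergence, or postemergence to plants 2-10 cm at one- to two-leaf stage, in loam/sand. After approximately 10 days in greenhouse, injury rated visually versus untreated controls, 0 (no effect) to 100 (complete control).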

[2] = test system: giant foxtail (Setaria faberii); assay: Test A preemergence, visual injury rating; conditions: 1000 g ai/ha, 0 to 100 scale (0 no effect, 100 complete control)
How it was run: as §1

[3] = test system: barnyardgrass (Echinochloa crus-galli); assay: Test A preemergence, visual injury rating; conditions: 1000 g ai/ha, 0 to 100 scale (0 no effect, 100 complete control)
How it was run: as §1

corn (Zea mays) [4] = assay: Test A preemergence, visual injury rating; conditions: 1000 g ai/ha, 0 to 100 scale (0 no effect, 100 complete control)
How it was run: as §1

[5] = test system: wheat (Triticum aestivum); assay: Test A preemergence, visual injury rating; conditions: 1000 g ai/ha, 0 to 100 scale (0 no effect, 100 complete control)
How it was run: as §1

[6] = test system: velvetleaf (Abutilon theophrasti); assay: Test A preemergence, visual injury rating; conditions: 1000 g ai/ha, 0 to 100 scale (0 no effect, 100 complete control)
How it was run: as §1

[7] = test system: pigweed (Amaranthus retroflexus); assay: Test A preemergence, visual injury rating; conditions: 1000 g ai/ha, 0 to 100 scale (0 no effect, 100 complete control)
How it was run: as §1

[8] = test system: barnyardgrass (Echinochloa crus-galli); assay: Test B flooded paddy test, plant response rating; conditions: 250 g ai/ha; Flood; scale of 0 to 100 where 0 is no effect and 100 is complete control; 13 to 15 days
How it was run: (§2)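 Compound was added to standing water 3 cm above soil, flood maintained, and plants held in a greenhouse before visual scoring against controls at 13 to 15 days.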

rice (Oryza sativa) = assay: Test B flooded paddy test, plant response rating; conditions: 250 g ai/ha; Flood; scale of 0 to 100 where 0 is no effect and 100 is complete control; 13 to 15 days
How it was run: as §2

[9] = test system: ducksalad (Heteranthera limosa); assay: Test B flooded paddy test, plant response rating; conditions: 250 g ai/ha; Flood; scale of 0 to 100 where 0 is no effect and 100 is complete control; 13 to 15 days
How it was run: as §2

[10] = test system: sedge, umbrella (small-flower umbrella sedge, Cyperus difformis); assay: Test B flooded paddy test, plant response rating; conditions: 250 g ai/ha; Flood; scale of 0 to 100 where 0 is no effect and 100 is complete control; 13 to 15 days
How it was run: as §2

[11] = test system: large (Lg) crabgrass (Digitaria sanguinalis); assay: Test A postemergence, visual injury rating; conditions: 1000 g ai/ha, 0 is no effect, 100 is complete control
How it was run: as §1

[12] = test system: giant foxtail (Setaria faberii); assay: Test A postemergence, visual injury rating; conditions: 1000 g ai/ha, 0 is no effect, 100 is complete control
How it was run: as §1

[13] = test system: barnyardgrass (Echinochloa crus-galli); assay: Test A postemergence, visual injury rating; conditions: 1000 g ai/ha, 0 is no effect, 100 is complete control
How it was run: as §1

corn (Zea mays) [14] = assay: Test A postemergence, visual injury rating; conditions: 1000 g ai/ha, 0 is no effect, 100 is complete control
How it was run: as §1

[15] = test system: wheat (Triticum aestivum); assay: Test A postemergence, visual injury rating; conditions: 1000 g ai/ha, 0 is no effect, 100 is complete control
How it was run: as §1

[16] = test system: velvetleaf (Abutilon theophrasti); assay: Test A postemergence, visual injury rating; conditions: 1000 g ai/ha, 0 is no effect, 100 is complete control
How it was run: as §1

[17] = test system: pigweed (Amaranthus retroflexus); assay: Test A postemergence, visual injury rating; conditions: 1000 g ai/ha, 0 is no effect, 100 is complete control
How it was run: as §1

[18] = test system: morningglory (Ipomoea spp.); assay: Test A preemergence, visual injury rating; conditions: 1000 g ai/ha, 0 to 100 scale (0 no effect, 100 complete control)
How it was run: as §1

[19] = test system: morningglory (Ipomoea spp.); assay: Test A postemergence, visual injury rating; conditions: 1000 g ai/ha, 0 is no effect, 100 is complete control
How it was run: as §1

## CC(=NOC(C)C)c1ccccc1Oc1ncc(Cl)cn1 [Compound 56]
[1]
  Crabgrass, Large plant response rating: 100
[2]
  Foxtail, Giant plant response rating: 100
[3]
  Barnyardgrass plant response rating: 90
Corn (Zea mays) [4]
  Corn plant response rating: 0
[5]
  Wheat plant response rating: 0
[6]
  Velvetleaf plant response rating: 90
[7]
  Pigweed plant response rating: 100
[8]
  Plant response rating, Barnyardgrass: 0
Rice (Oryza sativa)
  Plant response rating, Rice: 0
[9]
  Plant response rating, Ducksalad: 0
[10]
  Plant response rating, Sedge, Umbrella: 0
[11]
  Crabgrass, Large plant response rating (0 to 100 scale): 40
[12]
  Foxtail, Giant plant response rating (0 to 100 scale): 70
[13]
  Barnyardgrass plant response rating (0 to 100 scale): 50
Corn (Zea mays) [14]
  Corn plant response rating (0 to 100 scale): 30
[15]
  Wheat plant response rating (0 to 100 scale): 10
[16]
  Velvetleaf plant response rating (0 to 100 scale): 100
[17]
  Pigweed plant response rating (0 to 100 scale): 60

## CC(C)ON=Cc1ccccc1Oc1ncc(Cl)cn1 [Compound 57]
[1]
  Crabgrass, Large plant response rating: 100
[2]
  Foxtail, Giant plant response rating: 90
[3]
  Barnyardgrass plant response rating: 50
Corn (Zea mays) [4]
  Corn plant response rating: 0
[5]
  Wheat plant response rating: 0
[6]
  Velvetleaf plant response rating: 20
[7]
  Pigweed plant response rating: 60
[18]
  Morningglory plant response rating: 0
[8]
  Plant response rating, Barnyardgrass: 0
Rice (Oryza sativa)
  Plant response rating, Rice: 0
[9]
  Plant response rating, Ducksalad: 0
[10]
  Plant response rating, Sedge, Umbrella: 0
[11]
  Crabgrass, Large plant response rating (0 to 100 scale): 30
[12]
  Foxtail, Giant plant response rating (0 to 100 scale): 20
[13]
  Barnyardgrass plant response rating (0 to 100 scale): 20
Corn (Zea mays) [14]
  Corn plant response rating (0 to 100 scale): 20
[15]
  Wheat plant response rating (0 to 100 scale): 20
[17]
  Pigweed plant response rating (0 to 100 scale): 40
[19]
  Morningglory plant response rating (0 to 100 scale): 10
